Results: patent US6605589B1, “Cathepsin inhibitors in cancer treatment” (Parker Hughes Institute, priority 2000, dated 2003)

How the values were obtained:
Type in all cases: cell-based, human
K562 cells = assay: Flow cytometric apoptosis detection in p53 deficient cells; details: K-562, p53 deficient
Procedure: (§1) Quantitative flow cytometric apoptosis detection assays were performed on BT-20 (breast cancer), PC-3 (prostate cancer), U373 (glioblastoma), SQ20B (squamous cell carcinoma), HeLa (cervix cancer), and DU145 (prostate cancer). Just prior to the assay, one mg/ml stock solutions of MC540 (Sigma, St. Louis, Mo.) and PI (Sigma, St. Louis, Mo.) were filtered through a 0.22 μm filter and stored at 4° C. in the dark. CATI-1 treated cell lines was harvested, and 1×10^6 cells suspended and stained with 5 μg/ml MC540 and 10 μg/ml propidium iodide (PI) (Uckun et al. (1996) Science, 273: 1096-1100) at 4° C. in the dark for 24 hours. Stained cells were analyzed with a FACStar Plus flow cytometer (Becton Dickinson, San Jose, Calif.) using the 488-nm excitation from an argon laser. MC540 and PI emissions were split with a 600-nm short pass diachronic mirror; a 575-nm band pass filter was placed in front of one photomultiplier tube to measure MC540 emission, and 635-nm band pass filter was used for PI emission. In each experiment approximately 10,000 cells were analyzed by FACS and the percentage of cells at early (MC540 fluorescence only) and advanced (dual MC540 plus PI fluorescence) stages of apoptosis obtained.
(§2) Effects of CATI-1 were investigated on a lung squamous carcinoma cell line, NCI-H520 cells, and a chronic myeloid leukemia cell line, K562 cells.

NCI-H520 cells = assay: as above
Procedure: as §1, §2

BT-20 (breast cancer) [1] = assay: Quantitative flow cytometric apoptosis detection assay (MC540/PI); details: 0 to 100 μM, FIGS. 1-3
Procedure: as §1

HeLa (cervix cancer) = assay: as above; details: 0 to 100 μM, FIGS. 1-3
Procedure: as §1

U373 (glioblastoma) = assay: as above; details: 0 to 100 μM, FIGS. 1-3
Procedure: as §1

[2] = tested on: SQ20B (squamous cell carcinoma); assay: as above; details: 0 to 100 μM, FIGS. 1-3
Procedure: as §1

PC-3 (prostate cancer) = assay: as above; details: 0 to 100 μM, FIGS. 1-3
Procedure: as §1

DU145 (prostate cancer) = assay: as above; details: 0 to 100 μM, FIGS. 1-3
Procedure: as §1

SQ20B cells = assay: TUNEL assay (DNA cleavage); details: 50 μM and 100 μM CATI-1, FIG. 3
Procedure: (§3) DNA cleavage as an indicator of apoptosis was determined using the in situ terminal deoxynucleotidyl transferase (TdT)-mediated dUTP nick-end-labeling method (TUNEL assay) of Boehringer Mannheim (Cell Death Detection Kit) as described in Zhu et al. (1999) Clin. Can. Res., 5:355-360. Briefly, CATI-1 treated cells and control cells were harvested and resuspended in phosphate-buffered saline (PBS) at a density of 5×10^6 cells/ml. Fifty μl of each cell suspension was placed into a PAP Pen (Zymed Laboratories Inc., South San Francisco, Calif.)-circled area on Superfrost/Plus slide (Fisher Scientific, Pittsburgh, Pa.) that was coated for cell adhesion. Cells were allowed to adhere to the slide for 10 minutes, washed with PBS and fixed with a 4% paraformadehyde in PBS solution for 20 minutes. After washing the slides twice with PBS, the cells were permeabilized by treatment with 100 μl of 20 mM SDS in PBS for 10 minutes. […] However, non-apoptotic cells incorporate only insignificant amounts of FITC-labeled dUTP due to the lack of exposed 3′-hydroxyl ends in intact DNA and consequently have much less green fluorescence than apoptotic cells. DNA bound PI emits strong red nuclear fluorescence from all the cells.

BT-20 cells = assay: TUNEL assay (DNA cleavage); details: 50 μM and 100 μM CATI-1, FIG. 3
Procedure: as §3

[3] = tested on: all tested cell lines, solid and blood cell; assay: In vitro clonogenic assay, all tested cell lines; details: JURKAT, KM3, DAUDI, RAJI (BAX deficient)
Procedure: (§4) In vitro clonogenic assays were carried out to determine the cytotoxic activity of the cathepsin inhibitor I (CATI-1) (Z-Phe-Gly-NHO-Bz) against cancer cells. The cancer cell lines used in the assay were U373 (glioblastoma), BT-20 (breast cancer), SQ20B (squamous cell carcinoma), RS4;11 (pro-B ALL), ALL-1 (pre-pre-B ALL), KM-3, MOLT-3 (T-ALL), JURKAT (T-ALL), K-562 (CML), HL-60 (AML), DAUDI (NHL), RAMOS (NHL) and RAJI (NHL). Each cell line was treated under several concentrations of CATI-1 for 24 hours, washed with serum free medium and resuspended in clonogenic medium having 10% fetal bovine serum and 0.9% methylcellulose. Resuspended cells were plated in duplicate 35-mm Petri dishes at 10,000 to 20,000 cells per dish and cultured at 37° C. in a humidified 5% CO2 atmosphere for 5 to 7 days.
(§5) Images of colonies in each dish were taken by a digital camera (Princeton Instruments, Inc.) linked to a microscope (Nikon Diaphot 200). Colony numbers were determined using an inverted phase microscope and percent inhibition of colony formation determined using the formula:
% inhibition=(1−(colony number in test sample/colony number in control sample))×100. […]

[4] = tested on: all tested cancer cell lines; assay: Cytometric apoptosis detection assays, FIG. 2; details: FIG. 2 (SQ-20B, HeLa, PC-3, BT-20)
Procedure: The percentages indicate the fraction of cells at an early stage of apoptosis (lower right quadrant), as measured by single MC540 fluorescence, and the fraction of cells at an advanced stage of apoptosis (upper right quadrant).
as §1, with “MC540 and PI emissions were split with a 600-nm short pass diachronic mirror; a 575-nm band pass filter was placed in front of one photomultiplier tube to measure MC540 emission, and 635-nm band pass filter was used for PI emission.” left out

RS4;11 (pro-B ALL) = assay: In vitro clonogenic assay; details: for %, inhibition / Mean no, of colonies: 24 hours
Procedure: as §4, §5
(§6) % inhibition=(1−(colony number in test sample/colony number in control sample))×100.

BT-20 (breast cancer) [5] = assay: In vitro clonogenic assay; details: 24 hours
Procedure: as §4, §5, §6

MOLT-3 (T-ALL) = assay: In vitro clonogenic assay; details: for %, inhibition / Mean no, of colonies: 24 hours
Procedure: as §4, §5, §6

HL-60 (AML) = assay: In vitro clonogenic assay; details: CATI-1 10 uM, 24 hours
Procedure: as §4, §5, §6

RAMOS (NHL) = assay: In vitro clonogenic assay; details: for %, inhibition / Mean no, of colonies: 24 hours
Procedure: as §4, §5, §6

K-562 (CML) = assay: In vitro clonogenic assay; details: CATI-1 10 uM, 24 hours
Procedure: as §4, §5, §6

[6] = read-out: IC50 (colony formation)

- EC50 (K562 cells): ~20 µM
- EC50 (NCI-H520 cells): 55 µM
- IC50 (RS4;11 (pro-B ALL); [6]): 14.6 µM
- IC50 (MOLT-3 (T-ALL); [6]): 5.5 µM
- IC50 (RAMOS (NHL); [6]): 10.1 µM
SMILES: O=C(CNC(=O)[C@H](Cc1ccccc1)NC(=O)OCc1ccccc1)NOC(=O)c1ccccc1 [CATI-1, Z-Phe-Gly-NHO-Bz]
- induction of apoptosis (BT-20 (breast cancer) [1]): induces apoptosis
- induction of apoptosis (HeLa (cervix cancer)): induces apoptosis
- induction of apoptosis (U373 (glioblastoma)): induces apoptosis
- induction of apoptosis [2]: induces apoptosis
- induction of apoptosis (PC-3 (prostate cancer)): induces apoptosis
- induction of apoptosis (DU145 (prostate cancer)): induces apoptosis
- DNA fragmentation (TUNEL) (SQ20B cells): nuclear green fluorescence consistent with DNA fragmentation
- DNA fragmentation (TUNEL) (BT-20 cells): nuclear green fluorescence consistent with DNA fragmentation
- susceptibility of BAX deficient cell lines to CATI-1 [3]: highly susceptible
- induction of apoptosis [4]: induced apoptosis
- %, inhibition (RS4;11 (pro-B ALL); CATI-1 10 uM): 10.6%
- Mean no, of colonies (RS4;11 (pro-B ALL); CATI-1 10 uM): 2676 (2160, 3192)
- %, inhibition (RS4;11 (pro-B ALL); CATI-1 20 uM): 96.8%
- Mean no, of colonies (RS4;11 (pro-B ALL); CATI-1 20 uM): 96 (116, 76)
- %, inhibition (RS4;11 (pro-B ALL); CATI-1 35 uM): 100%
- Mean no, of colonies (RS4;11 (pro-B ALL); CATI-1 35 uM): 0 (0, 0)
- %, inhibition (BT-20 (breast cancer) [5]; CATI-1 50 uM): 95%
- Mean no, of colonies (BT-20 (breast cancer) [5]; CATI-1 50 uM): 177 (154, 200)
- %, inhibition (BT-20 (breast cancer) [5]; CATI-1 100 uM): 100%
- Mean no, of colonies (BT-20 (breast cancer) [5]; CATI-1 100 uM): 0
- %, inhibition (MOLT-3 (T-ALL); CATI-1 10 uM): 90.8%
- Mean no, of colonies (MOLT-3 (T-ALL); CATI-1 10 uM): 194 (124, 264)
- %, inhibition (MOLT-3 (T-ALL); CATI-1 20 uM): 99.1%
- Mean no, of colonies (MOLT-3 (T-ALL); CATI-1 20 uM): 18 (16, 20)
- %, inhibition (MOLT-3 (T-ALL); CATI-1 35 uM): 100%
- Mean no, of colonies (MOLT-3 (T-ALL); CATI-1 35 uM): 0 (0, 0)
- %, inhibition (HL-60 (AML)): 100%
- Mean no, of colonies (HL-60 (AML)): 0 (0, 0)
- %, inhibition (RAMOS (NHL); CATI-1 10 uM): 47.1%
- Mean no, of colonies (RAMOS (NHL); CATI-1 10 uM): 1442 (1344, 1540)
- %, inhibition (RAMOS (NHL); CATI-1 20 uM): 78.2%
- Mean no, of colonies (RAMOS (NHL); CATI-1 20 uM): 594 (660, 528)
- %, inhibition (RAMOS (NHL); CATI-1 35 uM): 100%
- Mean no, of colonies (RAMOS (NHL); CATI-1 35 uM): 0 (0, 0)
- %, inhibition (K-562 (CML)): 19.0%
